Measurements taken from paper PMC4384115, “Molecular Recognition of PTS-1 Cargo Proteins by Pex5p: Implications for Protein Mistargeting in Primary Hyperoxaluria” (Biomolecules, 2015).
No end group written: not given here.

Columns and labels:
[1] = molecular target: T1, Pex5p-pbd (PTS1 binding domain of human Pex5p, amino acids 235–602) (Homo sapiens, UniProt P50542); test: Isothermal titration calorimetry of AGT proteins and PTS1 nonapeptides with Pex5p-pbd; details: for -TΔS / ΔG / ΔH / decrease in the enthalpic penalty (more favorable enthalpic contribution) to binding compared to the natural PTS1 sequence / N (binding stoichiometry) / Kd: ITC; for -TΔS / ΔG / ΔH / N (binding stoichiometry) / Kd: pH 7.4, 25 °C; for ΔCp: from the linear dependence of ΔH on temperature, 10–35 °C, pH 7.4; for decrease in the enthalpic penalty (more favorable enthalpic contribution) to binding compared to the natural PTS1 sequence: 25 °C, full-length AGT / AGT-LRM background; for N (binding stoichiometry): 20 mM Na-HEPES, 200 mM NaCl, AGT protein in cell titrated with Pex5p-pbd
T1 construct: Pex5p-pbd; amino acids 235–602; hexa-histidine (N); made in house
Description: Calorimetric measurements were carried out using a MicroCal ITC200 microcalorimeter (MicroCal, Malvern Instruments) with 205.9 μL cell volume. All the experiments were performed using 20 mM Na-HEPES (or Na-Phosphate), 200 mM NaCl, pH 7.4. […] Each titration was initiated by a 0.5 μL injection followed by 14–30 injections of 1.2–2.5 μL (spaced 150 s). Heats of dilution were determined experimentally from blank titrations. The association constants (Ka), binding enthalpy changes (ΔH), as well as the binding stoichiometries (N), were obtained by non-linear regression analysis using a one-independent-type-of-sites binding model implemented in the Origin 7.0. Software (Origin Lab Co., Northampton, MA, USA).

[2] = tested on: CHO cells; test: Confocal immunofluorescence colocalization of AGT with mitochondria (Mitotracker) in transfected CHO cells; type: cell-based, Chinese hamster; details: transiently transfected CHO cells, fixed 72 h after transfection; mean ± S.E.; SEM
Description: (§1) Chinese hamster ovary (CHO) cells (ATTC, Rockville, MD USA) were grown in alpha-minimal essential medium (α-MEM, Lonza, Köln, Germany) supplemented with glutamine, penicillin/streptomycin and 5% fetal bovine serum. Cell transfections were performed using AGT cDNA variants (AGT-LRM or AGT-LRM-SKL) subcloned in pCIneo plasmids (Promega) with Transfast reagent (Promega, Madison, WI, USA), following manufacturer’s guidelines. After 24 h, cells were passed to plates containing 13 mm glass coverslips for immunofluorescence studies. Mitochondria in half the coverslips were labeled by incubation with Mitotracker (CMXRos, Invitrogen, Carlsbad, CA, USA) at the end of the culture. […]
(§2) For quantitative immune-colocalization, the system was optimized to detect two fluorescent signals in one specimen: one in the green channel detector for protein of interest AGT-LRM or AGT-LRM-SKL and the other in the red channel, for either mitochondria labeled with mitotracker or peroxisomes labeled with peroxisomal membrane protein 70 (PMP70) antibody. […] Colocalization events (or the lack thereof) were analyzed quantitatively with FluoView software (Olympus, Tokyo, Japan) and ImageJ software (NIH, Bethesda, MD, USA) with the JACoP plugin, based on a global statistic approach that conducts an intensity correlation coefficient-based examination. […]

[3] = tested on: CHO cells; test: Confocal immunofluorescence colocalization of AGT with peroxisomes (PMP70) in transfected CHO cells; type: cell-based, Chinese hamster; details: mean ± S.E., SEM
Description: as §1, §2

[4] = molecular target: Pex5p; details: PTS1 octapeptide sequences; read-out: Kd (nM), previously determined dissociation constant; cited from earlier work
Description: The protein sequence in which these octapeptides are naturally found, as well as their previously determined dissociation constant, are indicated [7].

[5] = AGT proteins, mean ± s.d. of three independent titrations, SD
[6] = mean ± s.d. of three independent titrations, SD
[7] = PTS1 nonapeptides (500 μM) titrated into Pex5p-pbd (20 μM), means of two independent titrations

Substance: QHCPK S KL [AGT-SKL]
- -TΔS [1, 5]: -11.8 ± 0.406 kcal/mol
- ΔG [1, 5]: -10.3 ± 0.22 kcal/mol
- ΔH [1, 5]: 1.51 ± 0.19 kcal/mol
- ΔCp ([1]; AGT proteins): −2.7 ± 0.1 kJ/mol·K
- decrease in the enthalpic penalty (more favorable enthalpic contribution) to binding compared to the natural PTS1 sequence [1]: about 16 kJ/mol
- N (binding stoichiometry) [1, 6]: 0.8 ± 0.1
- Pearson Rr, AGT + Mitotracker [2]: 0.47 ± 0.08
- % Coloc (Manders' m), AGT + PMP70 ([3]; CHO cells, given as fraction, split Manders' M1 in situation 2, Manders' overlap R in situation 4): 0.84 ± 0.08
- Pearson Rr, AGT + PMP70 ([3]; transiently transfected CHO cells, fixed 72 h after transfection): 0.79 ± 0.08

Substance: QHCPKKKL [AGT, alanine: glyoxylate aminotransferase, reference compound]
- -TΔS [1, 5]: -13.2 ± 0.287 kcal/mol
- Kd [1, 5]: 1400 ± 200 nM
- ΔG [1, 5]: -8.01 ± 0.096 kcal/mol
- ΔH [1, 5]: 5.19 ± 0.884 kcal/mol
- ΔCp ([1]; AGT proteins): −2.5 ± 0.4 kJ/mol·K
- N (binding stoichiometry) [1, 6]: 1.0 ± 0.1

Substance: VAQATC KL [HMG, reference compound]
- decrease in the enthalpic penalty (more favorable enthalpic contribution) to binding compared to the natural PTS1 sequence [1]: about 16 kJ/mol
- Kd [4]: 2000 nM

Substance: VGSL K S KL [ACO]
- Kd [4]: 1.6 nM

Substance: YQHCPKKKL [pAGT]
- Kd [1, 7]: 19000 nM

Substance: YQHCPKSKL [pAGT-SKL]
- Kd [1, 7]: 29 nM

Substance: YQSHPRAKL [pCRA]
- Kd [1, 7]: 157 nM

Substance: YVGSLKSKL [pACO]
- Kd [1, 7]: 14 nM
